Measurements taken from patent US7041290B2, “Molecules and methods for inhibiting shedding of KIM-1” (Biogen Idec MA Inc., priority 2001, dated 2006).

Columns and labels:
[1] = test system: shedding of KIM-1, renal carcinoma cells 769-P; assay: Shedding of KIM-1 in 769-P cell culture, soluble KIM-1 by ELISA; format: cell-based, human; conditions: 769-P cells, 28 hours; for inhibition of KIM-1 shedding: 32 μM
Method: BB-94 (batismatat) and GM6001 (Ilomastat), are two broad spectrum hydroxamic acid-based zinc metalloproteinase inhibitors which inhibit several matrix metalloproteinases (MMP) (20). BB-94 is also a potent inhibitor of TACE (TNF alpha converting enzyme) (18). The activity of these two inhibitors on the shedding of KIM-1 in cell culture was examined.
(§1) Stock solutions of BB-94 and GM6001 were maintained in DMS0 at a concentration of 70 mM for BB-94 and 2.5 mM for GM6001. Compounds were diluted directly into fresh medium to concentrations ranging from 0.5 μm to 32 μm. Renal carcinoma cells 769-P were grown in RPMI medium supplemented with 10% fetal bovine serum, 10 mM HEPES, and 1 mM sodium pyruvate, and in the presence of various concentrations of BB-94 and GM6001 for 28 hours. […] The amount of soluble KIM-1 released into the extracellular milieu during the 28h-period was measured by ELISA (FIG. 5).

[2] = test system: Renal carcinoma cells 769-P; assay: Cell viability with the mitochondria dye MTT; format: cell-based, human; conditions: end of the 28h-culture period, 0.5 to 32 μm
Method: as §1

SMILES	inhibition of KIM-1 shedding [1]	IC50 ([1]; Homo sapiens)	cytotoxicity (cell viability, MTT) [2]	IC50 [1]
CNC(=O)[C@H](Cc1c[nH]c2ccccc12)NC(=O)[C@@H](CC(=O)NO)CC(C)C [GM6001, Ilomastat]	complete inhibition	~4000 nM	absence of cytotoxicity	
CNC(=O)[C@H](Cc1ccccc1)NC(=O)[C@H](CC(C)C)[C@H](CSc1cccs1)C(=O)NO [BB-94, batismatat]	complete inhibition		absence of cytotoxicity	~1000 nM
